Legend:
[1] = system: Plasmodium falciparum W2 clone; experiment: FIC index with chloroquine (isobologram analysis) in W2 clone; type: cell-based; design: key: 1.0 = additive; <1.0 = synergy; >1.0 = antagonism; settings: 1:1 combination of drug and chloroquine; chloroquine-resistant W2 clone
Method: In brief, the assay is based on the incorporation of radiolabeled hypoxanthine by the parasites and inhibition of isotope incorporation is attributed to activity of known or candidate antimalarial drugs. For each assay, proven antimalarials, such as chloroquine, mefloquine, quinine, artemisinin, pyrimethamine and sulfadoxine, were used as controls. The incubation period was 66 hours and the starting parasitemia was 0.2% with a 1% hematocrit. […] Albumax may be used instead of 10% normal heat inactivated human plasma.
(§1) 25 μl of each diluted candidate compound was then transferred to test plates, 200 μl of parasitized erythrocytes (0.2% parasitemia and 1% hematocrit) were added, and incubated at 37° C. in a controlled environment of 5% CO2, 5% O2 and 90% N2. After 42 hours, 25 μl of ^3H-hypoxanthine was added and the plates were incubated for an additional 24 hours. At the end of the 66 hour incubation period, the plates were frozen at −70° C. to lyse the red cells and later thawed and harvested onto glass fiber filter mats by using a 96-well cell harvester. The filter mats were then counted in a scintillation counter and the data was analyzed.
The FIC is the actual IC50 of one compound in the presence of a second compound but is expressed as a fraction of its IC50 when used alone. This index is a mathematical representation of the isobologram such that an FIC index of 1.0 represents the line of additive on the isobologram. An FIC index of less than 1.0 represents synergy or potentiation and an FIC index of greater than 1.0 represents antagonism.
In the isobologram graphs as shown in FIGS. 1-3, the x-axis is fractional inhibitory concentration (FIC) of chloroquine and the y-axis is FIC of chemosensitizing agent. The FIC is the actual IC50 of one drug in the presence of the second drug but is expressed as a fraction of its IC50 when used alone. If the isobologram graph is a straight line, it represents an additive effect of the two drugs. If the graph forms a concave curve below the line, it indicates synergy or potentiation of the combination. Below the line means synergy or potentiation and above the line means antagonism.

Peruvian PC49 = experiment: FIC index in Peruvian PC49 isolate; type: cell-based, Plasmodium falciparum; design: key: 1.0 = additive; <1.0 synergy; >1.0 antagonism; settings: isolate from South America (Peru); same method as for W-2
Method: (§2) Fifty percent inhibitory concentrations (IC50s) were determined for each candidate compound alone and for candidate compounds in fixed combinations of their respective IC50s (1:1, 1:3, 3:1). […] See Elion, G. V., et al. (1954) J Biol Chem 208:477-488, which is herein incorporated by reference. The FIC is the actual IC50 of one compound in the presence of a second compound but is expressed as a fraction of its IC50 when used alone. This index is a mathematical representation of the isobologram such that an FIC index of 1.0 represents the line of additive on the isobologram. An FIC index of less than 1.0 represents synergy or potentiation and an FIC index of greater than 1.0 represents antagonism.
(§3) Parasites from different regions responded differently to the compounds of the present invention. The same assay method described above for W-2 was used except that the strains used were isolated from Thailand, Brazil, and Peru, respectively.

TM91C235 cells = experiment: In vitro reversal activity (cell growth suppression, 3H-hypoxanthine incorporation) in TM91C235 cells; type: cell-based, Plasmodium falciparum; settings: for Control % sup: test compounds only
Description: For quantitative in vitro drug susceptibility testing, two well characterized P. falciparum clones, W2 and D6, were used. See Oduola et al. (1988) Exp Parasitol 66:86-95, which is herein incorporated by reference. W2 is a clone of the Indochina I isolate and is resistant to chloroquine and pyrimethamine, but susceptible to mefloquine. D6 is a clone from the Sierra I/UNC isolate and is susceptible to chloroquine and pyrimethamine, but has reduced susceptibilities to mefloquine and halofantrine. TM91C235 was isolates from Thailand and is highly resistant to mefloquine, chloroquine, and quinine.
The in vitro antimalarial drug susceptibility assay used is a modification of the procedures first published by Desjardins, et al. with modifications developed by Milhous, et al. See Desjardins, R. E., et al. (1979) Antimicrobial Agents Chemother 16:710-718; and Milhous, et al. (1985) Antimicrobial Agents Chemother 27:525-530, which are herein incorporated by reference. In brief, the assay is based on the incorporation of radiolabeled hypoxanthine by the parasites and inhibition of isotope incorporation is attributed to activity of known or candidate antimalarial drugs. For each assay, proven antimalarials, such as chloroquine, mefloquine, quinine, artemisinin, pyrimethamine and sulfadoxine, were used as controls. The incubation period was 66 hours and the starting parasitemia was 0.2% with a 1% hematocrit. The media used was RPMI-1640 culture media with no folate or p-aminobenzoic acid (PABA). Albumax may be used instead of 10% normal heat inactivated human plasma.
If a candidate compound was tested without any prior knowledge of its activity or solubility, the compound was dissolved directly in dimethylsulfoxide (DMSO) and diluted 400 fold with complete culture media. These unknown compounds were normally started at a highest concentration of about 50,000 ng/ml. The compounds were then diluted 2-fold, 11 times, to give a concentration range of about 1,048-fold. These dilutions were performed automatically by a Biomek 1000 or 2000 Liquid Handling System into 96-well microtiter plates.
as §1
Each of these test compounds were tested under three different concentrations, 5000, 500, and 50 ng/ml, in the presence of 10 ng/ml of chloroquine and 5 ng/ml of mefloquine. […] Thus, the compounds of the present invention may be used to treat, prevent or inhibit drug resistant malaria.

RCS = experiment: FIC index in RCS isolate; type: cell-based, Plasmodium falciparum; design: key: 1.0 = additive; <1.0 synergy; >1.0 antagonism; settings: isolate from Brazil; same method as for W-2
Method: as §2, §3

TM91C235 = experiment: FIC index in TM91C235 isolate; type: cell-based, Plasmodium falciparum; design: key: 1.0 = additive; <1.0 = synergy; >1.0 = antagonism; settings: isolate from Southeast Asia (Thailand); same method as for W-2
Method: Fifty percent inhibitory concentrations (IC50s) were determined for each candidate compound alone and for candidate compounds in fixed combinations of their respective IC50s (1:1, 1:3, 3:1). […] The FIC is the actual IC50 of one compound in the presence of a second compound but is expressed as a fraction of its IC50 when used alone. This index is a mathematical representation of the isobologram such that an FIC index of 1.0 represents the line of additive on the isobologram. An FIC index of less than 1.0 represents synergy or potentiation and an FIC index of greater than 1.0 represents antagonism.
The same assay method described above for W-2 was used except that the strains used were isolated from Thailand, Brazil, and Peru, respectively.

[2] = test compound 50 ng/ml combined with 5 ng/ml mefloquine
[3] = test compound 500 ng/ml combined with 5 ng/ml mefloquine
[4] = test compound 500 ng/ml combined with 10 ng/ml chloroquine
[5] = test compound 5000 ng/ml combined with 5 ng/ml mefloquine
[6] = test compound 5000 ng/ml combined with 10 ng/ml chloroquine

## CCN(CC)CCCCN1c2ccccc2Sc2ccccc21 [7b, 10-(4-Diethylaminobutyl)phenothiazine]
[1]
  FIC (fractional inhibitory concentration) index: 0.23
Peruvian PC49
  FIC index Peruvian PC49: 0.41
TM91C235 cells; [2]
  Mefloquine % SUP: 17%
TM91C235 cells; test compound 50 ng/ml combined with 10 ng/ml chloroquine
  Chloroquine % sup: 31%
TM91C235 cells; [3]
  Mefloquine % SUP: 30%
TM91C235 cells; [4]
  Chloroquine % sup: 99%
TM91C235 cells; [5]
  Mefloquine % SUP: 100%
TM91C235 cells; [6]
  Chloroquine % sup: 100%
TM91C235 cells; 50 ng/ml
  Control % sup: 26%
TM91C235 cells; 500 ng/ml
  Control % sup: 38%
TM91C235 cells; 5000 ng/ml
  Control % sup: 100%
RCS
  FIC index RCS: 0.41
TM91C235
  FIC index TM91C235: 0.29

## CN(C)CCCCN1c2ccccc2CCc2ccccc21 [7i, 5-(4-Dimethylaminobutyl)iminodibenzyl]
[1]
  FIC (fractional inhibitory concentration) index: 0.23
Peruvian PC49
  FIC index Peruvian PC49: 0.62
TM91C235 cells; [2]
  Mefloquine % SUP: 43%
TM91C235 cells; [3]
  Mefloquine % SUP: 70%
TM91C235 cells; [4]
  Chloroquine % sup: 99%
TM91C235 cells; [5]
  Mefloquine % SUP: 95%
TM91C235 cells; [6]
  Chloroquine % sup: 100%
TM91C235 cells; 50 ng/ml
  Control % sup: 59%
TM91C235 cells; 500 ng/ml
  Control % sup: 73%
TM91C235 cells; 5000 ng/ml
  Control % sup: 96%
RCS
  FIC index RCS: 0.52
TM91C235
  FIC index TM91C235: 0.26

## CCN(CC)CCCCN1c2ccccc2CCc2ccccc21 [7j, 5-(4-Diethylaminobutyl)iminodibenzyl]
[1]
  FIC (fractional inhibitory concentration) index: 0.39
Peruvian PC49
  FIC index Peruvian PC49: 0.57
TM91C235 cells; [2]
  Mefloquine % SUP: 64%
TM91C235 cells; [3]
  Mefloquine % SUP: 95%
TM91C235 cells; [4]
  Chloroquine % sup: 100%
TM91C235 cells; [5]
  Mefloquine % SUP: 100%
TM91C235 cells; [6]
  Chloroquine % sup: 100%
TM91C235 cells; 50 ng/ml
  Control % sup: 62%
TM91C235 cells; 500 ng/ml
  Control % sup: 95%
TM91C235 cells; 5000 ng/ml
  Control % sup: 100%
RCS
  FIC index RCS: 0.57
TM91C235
  FIC index TM91C235: 0.41

## c1ccc2c(c1)CCc1ccccc1N2CCCCCN1CCCC1 [7v, 5-(5-Pyrrolidin-1-yl-pentyl)iminodibenzyl]
[1]
  FIC (fractional inhibitory concentration) index: 0.48
Peruvian PC49
  FIC index Peruvian PC49: 0.59
RCS
  FIC index RCS: 0.37
TM91C235
  FIC index TM91C235: 0.55

## c1ccc2c(c1)CCc1ccccc1N2CCCCCCN1CCCC1 [7x, 5-(6-Pyrrolidin-1-yl-hexyl)iminodibenzyl]
[1]
  FIC (fractional inhibitory concentration) index: 0.57
Peruvian PC49
  FIC index Peruvian PC49: 0.92
RCS
  FIC index RCS: 0.60
TM91C235
  FIC index TM91C235: 0.54

## c1ccc2c(c1)Sc1ccccc1N2CCCCN1CCCC1 [compound 7e, 10-(4-Pyrrolidin-1-yl-butyl)phenothiazine]
[1]
  FIC (fractional inhibitory concentration) index: 0.21
Peruvian PC49
  FIC index Peruvian PC49: 0.5
TM91C235 cells; [2]
  Mefloquine % SUP: 33%
TM91C235 cells; [3]
  Mefloquine % SUP: 67%
TM91C235 cells; [4]
  Chloroquine % sup: 99%
TM91C235 cells; [5]
  Mefloquine % SUP: 95%
TM91C235 cells; [6]
  Chloroquine % sup: 100%
TM91C235 cells; 50 ng/ml
  Control % sup: 38%
TM91C235 cells; 500 ng/ml
  Control % sup: 70%
TM91C235 cells; 5000 ng/ml
  Control % sup: 96%
RCS
  FIC index RCS: 0.51
TM91C235
  FIC index TM91C235: 0.25

## c1ccc2c(c1)CCc1ccccc1N2CCCCN1CCCC1 [compound 7m, 5-(4-Pyrrolidin-1-yl-butyl)iminodibenzyl]
[1]
  FIC (fractional inhibitory concentration) index: 0.32
Peruvian PC49
  FIC index Peruvian PC49: 0.66
TM91C235 cells; [2]
  Mefloquine % SUP: 64%
TM91C235 cells; [3]
  Mefloquine % SUP: 96%
TM91C235 cells; [4]
  Chloroquine % sup: 100%
TM91C235 cells; [5]
  Mefloquine % SUP: 100%
TM91C235 cells; [6]
  Chloroquine % sup: 100%
TM91C235 cells; 50 ng/ml
  Control % sup: 58%
TM91C235 cells; 500 ng/ml
  Control % sup: 98%
TM91C235 cells; 5000 ng/ml
  Control % sup: 100%
RCS
  FIC index RCS: 0.51
TM91C235
  FIC index TM91C235: 0.42

— patent US6800618B2, “Chemosensitizing agents against chloroquine resistant plasmodium falciparum and methods of making and using thereof” (The United States of America as represented by the …, priority 2001, dated 2004)
